Where a SMILES comes first, the peptide text is derived from it. [ ]: non-standard residue; d: D form. NMeF = CN[C@@H](Cc1ccccc1)C(=O)O
What was measured:
[1] = Inhibition of human voltage-dependent L-type calcium channel subunit alpha1C/alpha2delta/beta2a expressed in C1-6-37-3 cells assessed as inhibition of K+-induced calcium influx incubated for 30 mins prior to K+-induction by Fluo-4-AM based FLIPR assay; assay type: cell-based
[2] = Cytotoxicity against human Fa2N-4 cells after 24 hrs by MTT assay; assay type: cell-based; settings: Fa2N-4, 24 h

SMILES | IC50 [1] | IC50 [2]
COc1ccc(CCN(C)CCCC(C#N)(c2ccc(OC)c(OC)c2)C(C)C)cc1OC (centres undefined) | 0.9 µM | 
CC[C@H](C)[C@@H]1NC(=O)[C@H](Cc2ccccc2)N(C)C(=O)[C@H]([C@@H](C)CC)NC(=O)[C@H](Cc2ccccc2)N(C)C1=O (cyclo(I[NMeF]I[NMeF])) | 5 µM | > 20 µM
CC[C@H](C)[C@@H]1NC(=O)[C@H](Cc2ccccc2)N(C)C(=O)[C@H](C(C)C)NC(=O)[C@H](Cc2ccccc2)N(C)C1=O (cyclo(I[NMeF]V[NMeF])) | 7.1 µM | > 20 µM
CC(C)[C@@H]1NC(=O)[C@H](Cc2ccccc2)N(C)C(=O)[C@H](C(C)C)NC(=O)[C@H](Cc2ccccc2)N(C)C1=O (cyclo([NMeF]V[NMeF]V)) | 6.2 µM | > 20 µM
COc1ccc([C@@H]2Sc3ccccc3N(CCN(C)C)C(=O)[C@@H]2OC(C)=O)cc1 [DILTIAZEM] | 2.2 µM | 
CCOC(=O)C1=C(C)NC(C)=C(C(=O)OC)C1c1cccc([N+](=O)[O-])c1 (centres undefined) [NITRENDIPINE] | 0.003 µM | 

From ChEMBL document CHEMBL2062434, “Isolation and structural elucidation of cyclic tetrapeptides from Onychocola sclerotica” (J Nat Prod, 2012)
